Experimental data as given in patent US20190358181A1, “METHODS FOR AUTISM SPECTRUM DISORDER PHARMACOTHERAPY” (priority 2017, published 2019).

Tested on: 610 metabolites from 63 biochemical pathways
Assay: Targeted broad-spectrum plasma metabolomic analysis (LC-MS/MS), paired pre-infusion vs post-infusion (2-days and 6-weeks)
Format: in vivo, human
Settings: for Linear Ratio / VIP Score / Z Abs / Z Score: plasma
Experimental: Targeted, broad-spectrum, plasma metabolomic analysis of 610 metabolites from 63 biochemical pathways was performed by high performance liquid chromatography and tandem mass spectrometry (LC-MS/MS) on the samples collected from patients in Example 1. Venous blood was collected between the hours of 8 am and 5 pm, at least 3 hours after the last meal, into lithium-heparin vacutainer tubes (BD #367884). Plasma was separated by centrifugation at 900 g×10 minutes at room temperature within one hour of collection. The resulting fresh lithium-heparin plasma was transferred to labeled 1.2 ml or 2.0 ml externally threaded cryotubes with a minimum headspace air gap for storage at −80° C. for analysis. Samples were analyzed on an AB SCIEX QTRAP 5500 triple quadrupole mass spectrometer equipped with a Turbo V electrospray ionization (ESI) source, Shimadzu LC-20A UHPLC system, and a PAL CTC autosampler. Typically, 90 μl of plasma was thawed on ice and transferred to a 1.7 ml Eppendorf tube. Five (5.0) μl of a cocktail containing 25-35 commercial stable isotope internal standards, and 5.0 μl of 57 stable isotope internal standards that were custom-synthesized in E. coli NCM3722, Caenorhabditis elegans N2, and Komagataella phaffii (ATCC 76273; formerly known as Pichia pastoris) by metabolic labeling with 13C-glucose and 13C-bicarbonate, were added, mixed, and incubated for 10 min at 20° C. to permit small molecules and vitamins in the internal standards to associate with plasma binding proteins. Macromolecules (protein, DNA, RNA, glycans, etc.) were precipitated by extraction with 4 volumes (400 μl) of cold (−20° C.), acetonitrile:methanol (50:50) (LCMS grade, Cat #LC015-2.5 and GC230-4, Burdick & Jackson, Honeywell), vortexed vigorously, and incubated on crushed ice for 10 min, then removed by centrifugation at 16,000 g×10 min at 4° C. The supernatants containing the extracted metabolites and internal standards in the resulting 40:40:20 solvent mix of acetonitrile:methanol:water were transferred to labeled cryotubes and stored at −80° C. for LCMS/MS analysis.
LC-MS/MS analysis was performed by scheduled multiple reaction monitoring (sMRM) under Analyst v1.6.2 software control in both negative and positive mode with rapid polarity switching (50 ms). Nitrogen was used for curtain gas (set to 30), collision gas (set to high), ion source gas 1 and 2 (set to 35). The source temperature was 500° C. Spray voltage was set to −4500 V in negative mode and 5500 V in positive mode. The values for Q1 and Q3 mass-to-charge ratios (m/z), declustering potential (DP), entrance potential (EP), collision energy (CE), and collision cell exit potential (CXP) were determined and optimized for each MRM for each metabolite. Ten microliters of extract was injected by PAL CTC autosampler via a 10 μl stainless steel loop into a 250 mm×2.0 mm, 4 μm polymer based NH2 HPLC column (Asahipak NH2P-40 2E, Showa Denko America, Inc., NY) held at 25° C. for chromatographic separation. The mobile phase was solvent A: 95% water with 20 mM (NH4)2CO3 (Sigma, Fluka Cat #74415-250G-F), 5% acetonitrile, and 38 mM NH4OH (Sigma, Fluka Cat #17837-100ML), final pH 9.75; solvent B: 100% acetonitrile. Separation was achieved using the following gradient: 0-3.5 min: 95% B, 3.6-8 min: 85% B, 8.1-13 min: 75% B, 13.5-35 min: 0% B, 36-46 min: 95% B, 46.1 min: end. The flow rate was 200 μl/min. Pump pressures ranged from 920-2600 psi over the course of the gradient. All the samples were kept at 4° C. during analysis. The chromatographic peaks were identified using MultiQuant (v3.0, Sciex), confirmed by manual inspection, and the peak areas integrated. […]

[1] = 1-Carbon, Folate, Formate, Glycine, Serine Metabolism, 6-weeks
[2] = 1-Pyrroline-5-carboxylic acid, 6-weeks
[3] = 2-Hydroxyisocaproic acid, 6-weeks
[4] = 2-Hydroxyisovaleric acid, 6-weeks
[5] = 3-Hydroxy-cis-5-tetradecenoylcarnitine, 6-weeks
[6] = 4-Hydroxyphenyllactic acid, 6-weeks
[7] = Amino Acid Metabolism (not otherwise covered), 6-weeks
[8] = Amino-Sugar, Galactose, & Non-Glucose Metabolism, 6-weeks
[9] = Amino-Sugar, Galactose, & Non-Glucose, 2-days
[10] = Bioamines and Neurotransmitter Metabolism, 2-days

## Cc1ccc(C(=O)Nc2ccc(S(=O)(=O)O)c3cc(S(=O)(=O)O)cc(S(=O)(=O)O)c23)cc1NC(=O)c1cccc(NC(=O)Nc2cccc(C(=O)Nc3cc(C(=O)Nc4ccc(S(=O)(=O)O)c5cc(S(=O)(=O)O)cc(S(=O)(=O)O)c45)ccc3C)c2)c1 [Suramin, suramin]
[1]
  Decreased: 0
  Fold Enrichment (Obs/Exp): 3.6
  Fraction of Impact (VIP Score) Explained (% of 94.6): 4%
  Impact (Sum VIP Score): 4.0
  Increased: 2
  Observed Hits in the Top 48 Metabolites: 2
1-Methyladenine, 6-weeks
  Linear Ratio: 2.287
  VIP Score: 2.459
  Z Abs: 2.259
  Z Score: 2.259
[2]
  Linear Ratio: 1.299
  VIP Score: 2.358
  Z Abs: 1.922
  Z Score: 1.922
[3]
  Linear Ratio: 1.306
  VIP Score: 1.622
  Z Abs: 0.997
  Z Score: 0.997
[4]
  Linear Ratio: 1.234
  VIP Score: 1.988
  Z Abs: 1.146
  Z Score: 1.146
2-Keto-L-gluconate, 6-weeks
  Linear Ratio: 1.239
  VIP Score: 2.686
  Z Abs: 2.365
  Z Score: 2.365
2-days after the infusion
  biochemical pathways changed by suramin: 28
[5]
  Linear Ratio: 0.734
  VIP Score: 1.612
  Z Abs: 1.056
  Z Score: −1.056
[6]
  Linear Ratio: 1.294
  VIP Score: 1.945
  Z Abs: 1.172
  Z Score: 1.172
6-week time point
  pathways changed at 2-days that remained changed: 79%
6-weeks
  metabolites significantly changed by suramin (total): 48
Alanine, 6-weeks
  Linear Ratio: 1.322
  VIP Score: 2.456
  Z Abs: 1.687
  Z Score: 1.687
Allantoin, 6-weeks
  Linear Ratio: 1.798
  VIP Score: 1.882
  Z Abs: 1.068
  Z Score: 1.068
[7]
  Decreased: 0
  Fold Enrichment (Obs/Exp): 4.5
  Fraction of Impact (VIP Score) Explained (% of 94.6): 5%
  Impact (Sum VIP Score): 4.3
  Increased: 2
  Observed Hits in the Top 48 Metabolites: 2
Amino Acid Metabolism, 2-days
  Decreased: 0
  Fold Enrichment (Obs/Exp): 1.8
  Fraction of Impact (VIP Score) Explained (% of 119.7): 1%
  Impact (Sum VIP Score): 1.8
  Increased: 1
  Observed Hits in the Top 61 Metabolites: 1
[8]
  Decreased: 0
  Fold Enrichment (Obs/Exp): 1.8
  Fraction of Impact (VIP Score) Explained (% of 94.6): 2%
  Impact (Sum VIP Score): 1.9
  Increased: 1
  Observed Hits in the Top 48 Metabolites: 1
[9]
  Decreased: 0
  Fold Enrichment (Obs/Exp): 1.4
  Fraction of Impact (VIP Score) Explained (% of 119.7): 1%
  Impact (Sum VIP Score): 1.6
  Increased: 1
  Observed Hits in the Top 61 Metabolites: 1
Azelaic acid, 6-weeks
  Linear Ratio: 1.120
  VIP Score: 2.151
  Z Abs: 2.558
  Z Score: 2.558
Bile Acid Metabolism, 6-weeks
  Decreased: 0
  Fold Enrichment (Obs/Exp): 4.5
  Fraction of Impact (VIP Score) Explained (% of 94.6): 6%
  Impact (Sum VIP Score): 5.7
  Increased: 3
  Observed Hits in the Top 48 Metabolites: 3
Bile Salt Metabolism, 2-days
  Decreased: 0
  Fold Enrichment (Obs/Exp): 4.7
  Fraction of Impact (VIP Score) Explained (% of 119.7): 10%
  Impact (Sum VIP Score): 11.9
  Increased: 4
  Observed Hits in the Top 61 Metabolites: 4
[10]
  Decreased: 2
  Fold Enrichment (Obs/Exp): 1.6
  Fraction of Impact (VIP Score) Explained (% of 119.7): 3%
  Impact (Sum VIP Score): 3.3
  Increased: 0
  Observed Hits in the Top 61 Metabolites: 2
Branch Chain Amino Acid Metabolism, 2-days
  Decreased: 0
